Experimental findings from patent publication US4137241A, “Deoxy-(0-8)-epi-17-salinomycin (1)” (priority 1977, dated 1979) are described below.

For data set [1], the system named is DOCA Na rat. As to the kind of experiment: Antihypertensive activity in the DOCA Na rat, five-day oral dosing, systolic blood pressure. In kind it is in vivo. On the procedure: (§1) A test was conducted for antihypertensive activity in the DOCA Na rat. DOCA rats weighing 170 to 210 grams are used in the test. DOCA Na Hypertension is induced by unilateral nephrectomy followed by subcutaneous implantation of a 25 mg. desoxycorticosterone (DOCA) pellet. Animals are placed in individual cages receiving 0.9% sodium chloride solution to drink and rat chow diet ad libitum. Two weeks are allowed to elapse from the time of surgery for development of hypertension, i.e., systolic blood pressure of at least 150 mmHg.
(§2) Systolic blood pressure and heart rate are measured indirectly from the tail pressure pulse of unanesthetized rats, using a pneumatic pulse transducer. Control readings are taken prior to drug and post drug readings are taken at 1, 3, 6 and 24 hours.
The experimental results are represented as absolute values. Drug-related alterations in systolic blood pressure are expressed as percentage change by comparing control absolute values with post drug absolute values. Compounds are considered active when about a 15% or greater reduction in blood pressure is obtained. However, the reduction in blood pressure must show mathematical significance ([…]).
A derivative of the polyether ionophore, lasalocid, i.e., the bromo derivative of lasalocid, was tested in the above screen. The compound was orally administered for a five-day period by intubation and thereafter dosing was discontinued but blood pressure monitoring was continued. The following table illustrates the results obtained utilizing bromolasalocid as the test drug.

The subject of data set [2] is DOCA-Na. rat. Put plainly: Subacute antihypertensive activity in the DOCA-Na rat versus bromolasalocid (AHR, onset, duration). Type of data set: in vivo. On the procedure:
as §1, §2
The experimental results are represented as absolute values. Drug-related alterations in systolic blood pressure are expressed as percentage change by comparing control absolute values with post drug absolute values. […] However, the reduction in blood pressure must show mathematical significance ([…]).
Using bromolasalocid as a standard for comparison, a number of the novel episalinomycin of the present invention was tested for antihypertensive activity. The tests were conducted utilizing single oral dosages in the DOCA-Na. rat over a five-day period with dosing discontinued thereafter. Blood pressure monitoring was carried out for the five-day period and daily after cessation of dosing until blood pressure returned to predrug levels. […] The antihypertensive activity expressed as AHR (Subacute antihypertensive ratio) was calculated using bromolasalocid as the standard reference (Table III).

The test system of data set [3] is Paecilomyces varioti. Put plainly: Antimicrobial spectrum, agar diffusion technique. Type of data set: cell-based. The source says:
(§3) M.I.C. Values in mcg/ml utilizing the
(§4) Test Organism agar diffusion technique

In data set [4] the test system is Bacillus sp. TA. As to the kind of experiment: Antimicrobial spectrum, agar diffusion technique. In kind it is cell-based.
Text: as §3, §4
In general terms: Agar diffusion results depend on both activity and mobility in agar.

Data set [5] deals with Bacillus sp. E. As to the kind of experiment: Antimicrobial spectrum, agar diffusion technique. In kind it is cell-based.
Text: as §3, §4

Data set [6] has as its system Bacillus subtilis. As to the kind of experiment: Antimicrobial spectrum, agar diffusion technique. In kind it is cell-based.
Text: as §3, §4

Data set [7] relates to Bacillus megaterium. Put plainly: Antimicrobial spectrum, agar diffusion technique. As to conditions: Priestia megaterium. In kind it is cell-based.
Text: as §3, §4

In data set [8] the test system is Staphylococcus aureus. As to the kind of experiment: Antimicrobial spectrum, agar diffusion technique. In kind it is cell-based.
Text: as §3, §4

The subject of data set [9] is Actinomyces cellulosae. As to the kind of experiment: Antimicrobial spectrum, agar diffusion technique. Particulars: Streptomyces cellulosae. In kind it is cell-based.
Text: as §3, §4

The subject of data set [10] is Candida albicans. As to the kind of experiment: Antimicrobial spectrum, agar diffusion technique. In kind it is cell-based.
Text: as §3, §4

Data set [11] relates to Sarcina lutea. Put plainly: Antimicrobial spectrum, agar diffusion technique. As to conditions: Micrococcus luteus. In kind it is cell-based.
Text: as §3, §4

The test system of data set [12] is Mycobacterium phlei. As to the kind of experiment: Antimicrobial spectrum, agar diffusion technique. Type of data set: cell-based. Particulars: Mycolicibacterium phlei.
Text: as §3, §4

A short description of data set [13]: Oral (per os) toxicity (LD50). Particulars: in vivo.
[14] abbreviates: daily oral dose 1/100 of LD50 up to 10 mg/kg/day, five days.

≈ marks a conversion by molar mass, not a printed value. Some results are limits rather than exact numbers.

With `CC[C@@H](C(=O)[C@@H](C)[C@@H](O)[C@H](C)CCc1c(Br)cc(C)c(O)c1C(=O)O)[C@H]1O[C@](CC)([C@H]2CC[C@](O)(CC)[C@H](C)O2)C[C@@H]1C` [Bromolasalocid], the “Average Systolic Blood Pressure Per Group” value worked out at 193 mmHg in data set [1] (5 mg/kg per day oral for 5 days, Day 1 pm, pre-drug control (Day 1 am) 209); 206 mmHg in [1] (5 mg/kg per day oral for 5 days, Day 2 am, pre-drug control 209); 194 mmHg in data set [1] (5 mg/kg per day oral for 5 days, Day 2 pm, pre-drug control 209); 204 mmHg in data set [1] (5 mg/kg per day oral for 5 days, Day 3 am, pre-drug control 209); 191 mmHg in data set [1] (5 mg/kg per day oral for 5 days, Day 3 pm, pre-drug control 209); 206 mmHg in data set [1] (5 mg/kg per day oral for 5 days, Day 4 am, pre-drug control 209). Besides, the “Average Systolic Blood Pressure Per Group” value in data set [1] (5 mg/kg per day oral for 5 days, Day 4 pm, pre-drug control 209) is 201 mmHg; in data set [1] (5 mg/kg per day oral for 5 days, Day 5 am, pre-drug control 209) it was 197 mmHg; in data set [1] (5 mg/kg per day oral for 5 days, Day 5 pm, pre-drug control 209), 196 mmHg; in [1] (10 mg/kg per day oral for 5 days, Day 1 pm, p < .05, pre-drug control (Day 1 am) 217) it was 192 mmHg; in data set [1] (10 mg/kg per day oral for 5 days, Day 2 am, p < .05, pre-drug control 217), 181 mmHg; in data set [1] (10 mg/kg per day oral for 5 days, Day 2 pm, p < .05, pre-drug control 217) it was 166 mmHg. Moreover, the “Average Systolic Blood Pressure Per Group” value in data set [1] (10 mg/kg per day oral for 5 days, Day 3 am, p < .05, pre-drug control 217) is listed as 171 mmHg; in data set [1] (10 mg/kg per day oral for 5 days, Day 3 pm, p < .05, pre-drug control 217), 163 mmHg; in data set [1] (10 mg/kg per day oral for 5 days, Day 4 am, p < .05, pre-drug control 217) it was 173 mmHg; in data set [1] (10 mg/kg per day oral for 5 days, Day 4 pm, p < .05, pre-drug control 217), 157 mmHg; in data set [1] (10 mg/kg per day oral for 5 days, Day 5 am, p < .05, pre-drug control 217), 176 mmHg; in data set [1] (10 mg/kg per day oral for 5 days, Day 5 pm, p < .05, pre-drug control 217), 166 mmHg. In addition, the “Period blood pressure remained below control after drug dosing” value in data set [1] (after dosing for the first five consecutive days) was 10 days.
Broadly, the MIC is the lowest concentration found to suppress growth. What is called LD50 is the dose at which mortality reaches 50%. Low values mean a more toxic substance, high ones a less toxic substance. Consider `CCC(C(=O)O)C1CCC(C)C(C(C)C(O)C(C)C(=O)C(CC)C2OC3(C=CCC4(CCC(C)(C5CCC(O)(CC)C(C)O5)O4)O3)C(C)CC2C)O1` (stereo not drawn) [Deoxy-(0-8)-epi-17-salinomycin, 6-[5-[2'-(5"-Ethyltetrahydro-5"-hydroxy-6"-methyl-(2"H)-pyran-2"-yl]-2' ,12' ,14'-trimethyl-1',10' ,15'-trioxadispiro[4.3.5.1]pentadec-7'-en-11'-yl]-5-ethyl-1,3-dimethyl-2-hydroxy-4-oxopentyl]-alpha-ethyl-tetrahydro-5-methyl-(2H)-pyran-2-acetic acid], for which the “antihypertensive activity (in words)” value in data set [2] (DOCA-Na rat, oral, five-day period) is listed as “exhibited antihypertensive activity”. Also, the “Duration of Effect” value in [2] (setting [14]) came to 4 days. Also, in [2] (setting [14]), the “Onset to Max. Response” value was determined as 3 days. The MIC worked out at 15.7 µg/mL (≈ 21.4 µM) in [3]; 6.25 µg/mL (≈ 8.5 µM) in data set [4]; 6.25 µg/mL (≈ 8.5 µM) in data set [5]; 6.25 µg/mL (≈ 8.5 µM) in data set [6]; 6.25 µg/mL (≈ 8.5 µM) in data set [7]; 25 µg/mL (≈ 34 µM) in data set [8]. Moreover, the MIC in data set [9] is 250 µg/mL (≈ 340 µM); in [10], 2000 µg/mL (≈ 2720 µM); in [11], 25 µg/mL (≈ 34 µM); in [12] it was 500 µg/mL (≈ 680 µM). This compound yielded an LD50 in [13] of over 1000 mg/kg.
